We go through 24 compounds from patent US20230167127A1, “COMPOUNDS AND THEIR USE IN THE TREATMENT OF BACTERIAL INFECTION” (Hoffmann-La Roche Inc., priority 2020, published 2023).

Where a name gives a salt, the structure may show the parent alone.

The subject of the first test is Escherichia coli ATCC 25922. The experiment in a line: 50% growth inhibitory concentration (IC50) determination, Iso-Sensitest broth dilution. It is filed as cell-based. The following applies: Escherichia coli, ATCC25922, 16 h, strain Escherichia coli ATCC 25922; 10-point broth dilution, optical density at 600 nm over 16 h; read-out: Escherichia coli growth inhibition IC50. The method in brief:
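Growth was tracked as optical density at 600 nm every 20 minutes for 16 h at 35±2° C. Compounds from DMSO stocks were serially diluted twofold over 10 points (e.g. 50–0.097 μM final) in Iso-Sensitest broth. Inhibition computed in log-phase growth to give IC50.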
(In general: Dilution methods test growth across graded concentrations, often in twofold steps.)
Usually IC50 stands for the concentration at which inhibition is half-maximal. In the case of `NC1c2cccc(Cl)c2CC1CNCCc1cn(-c2cnc3c(n2)NC(=O)CO3)c(=O)o1` (racemic) [Example 359, 6-[5-[2-[(rac-1,2-trans-1-amino-4-chloro-2,3-dihydro-1H-inden-2-yl)methylamino]ethyl]-2-oxo-1,3-oxazol-3-yl]-4H-pyrazino[2,3-b][1,4]oxazin-3-one; formic acid], the 50% inhibitory concentration (IC50) was under 0.0977 µM.

`CC(O)COc1cc(F)c2c(c1)CC(CNCCC1CN(c3cnc4c(n3)NC(=O)CO4)C(=O)O1)C2` (stereo not drawn) [Example 351, 6-[5-[2-[[4-Fluoro-6-(2-hydroxypropoxy)-2,3-dihydro-1H-inden-2-yl]methylamino]ethyl]-2-oxo-1,3-oxazolidin-3-yl]-4H-pyrazino[2,3-b][1,4]oxazin-3-one; hydrochloride]: the IC50 amounted to 0.144 µM.

Regarding `CNC(=O)COc1cc(Cl)c2c(c1)C(N)C(CNCCC1CN(c3cnc4c(n3)NC(=O)CO4)C(=O)O1)C2` (racemic) [Example 399, 2-[[rac-2,3-trans-3-Amino-7-chloro-2-[[2-[2-oxo-3-(3-oxo-4H-pyrazino[2,3-b][1,4]oxazin-6-yl)-1,3-oxazolidin-5-yl]ethylamino]methyl]-2,3-dihydro-1H-inden-5-yl]oxy]-N-methylacetamide; formic acid], the 50% inhibitory concentration (IC50) stood at 1.12 µM.

For the compound `O=C1COc2ccc(N3CC(NCCNC4Cc5cccc(F)c5C4)CC3=O)nc2N1` (stereo not drawn) [Example 120, 6-[4-[2-[(4-fluoro-2,3-dihydro-1H-inden-2-yl)amino]ethylamino]-2-oxopyrrolidin-1-yl]-4H-pyrido[3,2-b][1,4]oxazin-3-one; formic acid], the IC50 is 0.44 µM.

Consider `CCNC(=O)COc1cc(F)c2c(c1)CC(CNCCC1CN(c3cnc4c(n3)NC(=O)CO4)C(=O)O1)C2` (stereo not drawn) [Example 308, N-ethyl-2-[[7-fluoro-2-[[2-[2-oxo-3-(3-oxo-4H-pyrazino[2,3-b][1,4]oxazin-6-yl)-1,3-oxazolidin-5-yl]ethylamino]methyl]-2,3-dihydro-1H-inden-5-yl]oxy]acetamide; formic acid], for which the concentration for half-maximal inhibition (IC50) was found to be 0.471 µM.

For `COCCNCCOc1nc(C)c2c(c1C)CC(CNCCC1CN(c3ccc4c(n3)NC(=O)CO4)C(=O)O1)C2` (stereo not drawn) [Example 202, 6-[5-[2-[[3-[2-(2-methoxyethylamino)ethoxy]-1,4-dimethyl-6,7-dihydro-5H-cyclopenta[c]pyridin-6-yl]methylamino]ethyl]-2-oxo-1,3-oxazolidin-3-yl]-4H-pyrido[3,2-b][1,4]oxazin-3-one], the IC50 amounted to 0.135 µM.

In the case of `Cc1nc(OCCN)c(C)c2c1CC(CNCCC1CN(c3ccc4c(n3)NC(=O)CO4)C(=O)O1)C2` (stereo not drawn) [Example 171, 6-[5-[2-[[3-(2-aminoethoxy)-1,4-dimethyl-6,7-dihydro-5H-cyclopenta[c]pyridin-6-yl]methylamino]ethyl]-2-oxo-1,3-oxazolidin-3-yl]-4H-pyrido[3,2-b][1,4]oxazin-3-one], the IC50 was found to be 0.178 µM.

Turning to `N#Cc1cccc2c1CC(CNCCC1CN(c3cnc4c(c3)NC(=O)CO4)C(=O)O1)C2` (stereo not drawn) [Example 46, 2-[[2-[2-oxo-3-(2-oxo-1H-pyrido[2,3-b][1,4]oxazin-7-yl)-1,3-oxazolidin-5-yl]ethylamino]methyl]-2,3-dihydro-1H-indene-4-carbonitrile], the IC50 was found to be 0.356 µM.

`Cc1cc(OCC2(N)CC2)c(C)c2c1CC(CNCCC1CN(c3cnc4c(n3)NC(=O)CO4)C(=O)O1)C2` (stereo not drawn) [Example 253, 6-[5-[2-[[5-[(1-Aminocyclopropyl)methoxy]-4,7-dimethyl-2,3-dihydro-1H-inden-2-yl]methylamino]ethyl]-2-oxo-1,3-oxazolidin-3-yl]-4H-pyrazino[2,3-b][1,4]oxazin-3-one; formic acid]: the IC50 is under 0.0977 µM.

`Cc1ncc(F)c2c1CC(CN(C)CCC1CN(c3cnc4c(n3)NC(=O)CO4)C(=O)O1)C2` (stereo not drawn) [Example 376, 6-[5-[2-[(4-Fluoro-1-methyl-6,7-dihydro-5H-cyclopenta[c]pyridin-6-yl)methyl-methylamino]ethyl]-2-oxo-1,3-oxazolidin-3-yl]-4H-pyrazino[2,3-b][1,4]oxazin-3-one]: the IC50 is under 0.0977 µM.

With `CC(C)(N)COc1cc(F)c2c(c1)CC(CNCC[C@H]1CN(c3cnc4c(n3)NC(=O)CO4)C(=O)O1)C2` (stereo partly drawn) [Example 341, 6-[(5S)-5-[2-[[6-(2-amino-2-methylpropoxy)-4-fluoro-2,3-dihydro-1H-inden-2-yl]methylamino]ethyl]-2-oxo-1,3-oxazolidin-3-yl]-4H-pyrazino[2,3-b][1,4]oxazin-3-one; formic acid], the IC50 was under 0.0977 µM.

As to `N#Cc1nccc2c1CC(CNCCC1CN(c3ccc4c(n3)NC(=O)CO4)C(=O)O1)C2` (stereo not drawn) [Example 90, 6-[[2-[2-oxo-3-(3-oxo-4H-pyrido[3.2-b][1,4]oxazin-6-yl)-1,3-oxazolidin-5-yl]ethylamino]methyl]-6,7-dihydro-5H-cyclopenta[c]pyridine-1-carbonitrile; formic acid], the 50% inhibitory concentration (IC50) was 0.17 µM.

As for `Cc1ncc(Cl)c2c1CC(CNCCC1CN(c3ccc4c(n3)NC(=O)CO4)C(=O)O1)C2N` (racemic) [Example 262, 6-[5-[2-[(rac-5,6-trans-5-Amino-4-chloro-1-methyl-6,7-dihydro-5H-cyclopenta[c]pyridin-6-yl)methylamino]ethyl]-2-oxo-1,3-oxazolidin-3-yl]-4H-pyrido[3,2-b][1,4]oxazin-3-one; formic acid], the IC50 was under 0.0977 µM.

For `O=C1COc2ccc(N3CC(CCNCC4Cc5c(ccnc5Cl)C4O)OC3=O)nc2N1` (racemic) [Example 41, 6-[2-oxo-5-[2-[[rac-(5,6-trans)-1-chloro-5-hydroxy-6,7-dihydro-5H-cyclopenta[c]pyridin-6-yl]methylamino]ethyl]-1,3-oxazolidin-3-yl]-4H-pyrido[3,2-b][1,4]oxazin-3-one; formic acid], the IC50 came to 0.728 µM.

Consider `Cc1cnc(-c2nc(OCC3(N)CC3)c(C)c3c2CC(CNCCC2CN(c4ccc5c(n4)NC(=O)CO5)C(=O)O2)C3)s1` (stereo not drawn) [Example 216, 6-[5-[2-[[3-[(1-aminocyclopropyl)methoxy]-4-methyl-1-(5-methyl-1,3-thiazol-2-yl)-6,7-dihydro-5H-cyclopenta[c]pyridin-6-yl]methylamino]ethyl]-2-oxo-1,3-oxazolidin-3-yl]-4H-pyrido[3,2-b][1,4]oxazin-3-one], for which the IC50 was found to be 0.211 µM.

For the compound `O=C1COc2ncc(N3CC(CCNCC4Cc5c(F)cnc(-c6cn[nH]c6)c5C4)OC3=O)nc2N1` (stereo not drawn) [Example 432, 6-[5-[2-[[4-fluoro-1-(1H-pyrazol-4-yl)-6,7-dihydro-5H-cyclopenta[c]pyridin-6-yl]methylamino]ethyl]-2-oxo-1,3-oxazolidin-3-yl]-4H-pyrazino[2,3-b][1,4]oxazin-3-one], the 50% inhibitory concentration (IC50) came to 0.12 µM.

Take `Cc1nccc2c1CC(CN1CCC3(CC1)CN(c1cnc4c(n1)NC(=O)CO4)C(=O)O3)C2` (stereo not drawn) [Example 374, 6-[8-[(1-methyl-6,7-dihydro-5H-cyclopenta[c]pyridin-6-yl)methyl]-2-oxo-1-oxa-3,8-diazaspiro[4.5]decan-3-yl]-4H-pyrazino[2,3-b][1,4]oxazin-3-one]: the 50% inhibitory concentration (IC50) was 0.207 µM.

For `CCn1cc(C(=O)O)c(=O)c2ccc3c(c21)CC(CNCCC1CN(c2ccc4c(n2)NC(=O)CO4)C(=O)O1)C3` (stereo not drawn) [Example 275, 1-Ethyl-4-oxo-8-[[2-[2-oxo-3-(3-oxo-4H-pyrido[3,2-b][1,4]oxazin-6-yl)-1,3-oxazolidin-5-yl]ethylamino]methyl]-8,9-dihydro-7H-cyclopenta[h]quinoline-3-carboxylic acid], the 50% inhibitory concentration (IC50) is 0.592 µM.

On to `Cc1cnc(C)c2c1CC(CNCCC1CN(c3ccc4c(n3)NC(=O)CO4)C(=O)O1)C2` (stereo not drawn) [Example 98, 6-[5-[2-[(1,4-dimethyl-6,7-dihydro-5H-cyclopenta[c]pyridin-6-yl)methylamino]ethyl]-2-oxo-1,3-oxazolidin-3-yl]-4H-pyrido[3,2-b][1,4]oxazin-3-one], for which the half-inhibitory concentration (IC50) was under 0.0977 µM.

Turning to `COc1cnc(Cl)c2c1CC(CNCCC1CN(c3cnc4c(n3)NC(=O)CO4)C(=O)O1)C2` (stereo not drawn) [Example 58, 6-[5-[2-[(1-chloro-4-methoxy-6,7-dihydro-5H-cyclopenta[c]pyridin-6-yl)methylamino]ethyl]-2-oxo-1,3-oxazolidin-3-yl]-4H-pyrazino[2,3-b][1,4]oxazin-3-one; formic acid], the IC50 came out at 0.19 µM.

As for `CNC(=O)COc1cc(C)c2c(c1C#N)CC(CNCCC1CN(c3cnc4c(n3)NC(=O)CO4)C(=O)O1)C2` (stereo not drawn) [Example 384, 2-[[4-cyano-7-methyl-2-[[2-[2-oxo-3-(3-oxo-4H-pyrazino[2,3-b][1,4]oxazin-6-yl)-1,3-oxazolidin-5-yl]ethylamino]methyl]-2,3-dihydro-1H-inden-5-yl]oxy]-N-methylacetamide], the IC50 was found to be 0.167 µM.

Staying with this test, now noted: strain Escherichia coli ATCC 25922; 10-point broth dilution, optical density at 600 nm over 16 h; read-out: Escherichia coli growth inhibition IC50.
As to `N#Cc1cccc2c1CC(NC1CCC3(CC1)CN(c1ccc4c(n1)NC(=O)CO4)C(=O)O3)C2` (single isomer, unassigned; isomer a) [Example 39, 2-[[2-oxo-3-(3-oxo-4H-pyrido[3,2-b][1,4]oxazin-6-yl)-1-oxa-3-azaspiro[4.5]decan-8-yl]amino]-2,3-dihydro-1H-indene-4-carbonitrile, Isomer A; formic acid], the concentration for half-maximal inhibition (IC50) was 0.737 µM.

Regarding `CC(C)(N)COc1cc(F)c2c(c1)CC(CN1CCC3(CC1)CN(c1cnc4c(n1)NC(=O)CO4)C(=O)O3)C2` (single isomer, unassigned; enantiomer b) [Example 378, 6-[8-[[6-(2-Amino-2-methylpropoxy)-4-fluoro-2,3-dihydro-1H-inden-2-yl]methyl]-2-oxo-1-oxa-3,8-diazaspiro[4.5]decan-3-yl]-4H-pyrazino[2,3-b][1,4]oxazin-3-one; formic acid, Enantiomer B], the IC50 was under 0.0977 µM.

Take `O=C1COc2ncc(N3CC(CC(O)CNC4Cc5cccc(F)c5C4)OC3=O)nc2N1` (single isomer, unassigned; isomer b) [Example 84, 6-[5-[3-[(4-fluoro-2,3-dihydro-1H-inden-2-yl)amino]-2-hydroxypropyl]-2-oxo-1,3-oxazolidin-3-yl]-4H-pyrazino[2,3-b][1,4]oxazin-3-one, Isomer B; formic acid]: the IC50 is 0.217 µM.
